Data reported in PubChem BioAssay (NCI).
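1) Cells in 96-well plates. 2) Compound, 48 h, 5 concentrations. 3) Linear interpolation between surrounding doses. 4) Unreached endpoint = highest concentration. The concentration for 50% growth inhibition is given as GI50. At the TGI there is no net growth.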

Legend:
Test in all cases: growth of human tumour cells (NCI), 48 h
[1] = tested on: HOP-92 NSCLC
[2] = tested on: SK-MEL-2 melanoma
[3] = tested on: ACHN renal
[4] = tested on: RXF 393 renal
[5] = tested on: SK-OV-3 ovarian
[6] = tested on: TK-10 renal
[7] = tested on: LOX IMVI melanoma
[8] = tested on: NCI-H23 lung
[9] = tested on: OVCAR-4 ovarian
[10] = tested on: NCI-H460 lung

| Structure (SMILES) | GI50 [1] | TGI [1] | GI50 [2] | TGI [2] | GI50 [3] | TGI [3] | GI50 [4] | TGI [4] | GI50 [5] | TGI [5] | GI50 [6] | TGI [6] | TGI [7] | TGI [8] | TGI [9] | TGI [10] |
| --- | --- | --- | --- | --- | --- | --- | --- | --- | --- | --- | --- | --- | --- | --- | --- | --- |
| C1CCC([PH+](C2CCCCC2)C2CCCCC2[PH+](C2CCCCC2)C2CCCCC2)CC1.[Au].[CH-]1CCCCC1C1CCCC[N-]1 (centres undefined) | 0.241 µM | 1.14 µM | 0.351 µM | 1.52 µM | 1 µM | 2.17 µM | 0.278 µM | 1.18 µM | 0.275 µM | 1.14 µM | 0.463 µM | 1.86 µM |  |  |  |  |
| CC(C)=CC(=O)CC(=O)C(=O)Nc1ccc(C)c(C)c1 |  | > 100 µM |  | > 100 µM |  | > 100 µM |  |  |  | > 100 µM |  | > 100 µM | > 100 µM | > 100 µM |  |  |
| COc1cc(C2C(Cl)C(=O)N2n2cnc3ccccc3c2=O)cc(OC)c1OC (centres undefined) |  |  |  | > 100 µM |  | > 100 µM |  | > 100 µM |  | > 100 µM |  | > 100 µM | > 100 µM | > 100 µM | > 100 µM | > 100 µM |
| CC1=C(C(=O)Nc2ccccc2)C(c2ccc3c(c2)OCO3)C(C(=O)Nc2ccccc2)=C(C)N1 |  |  |  | 74.5 µM |  | > 100 µM |  | 50.2 µM |  | > 100 µM |  | > 100 µM | 76.5 µM | > 100 µM | 81.4 µM | > 100 µM |
| O/N=C1/C(=C/c2ccc(F)cc2)CCCC1C(NO)c1ccc(F)cc1 (centres undefined) |  |  |  | > 100 µM |  | > 100 µM |  | 86.6 µM |  | > 100 µM |  | > 100 µM |  | 51.7 µM | > 100 µM | > 100 µM |
| C/C(=N\NC(=S)Nc1ccc(C(=O)O)cc1)c1ccccn1 |  | > 100 µM |  | 35.4 µM |  | 30.4 µM |  | 74.4 µM |  |  |  | > 100 µM | > 100 µM | 98.6 µM | 29.5 µM | 50.2 µM |
